Experimental data published in article PMC12631873 (Advanced Science, 2025).
Square brackets hold non-standard residues; d marks the D form. Peptide text beside a SMILES is read from it. * marks the point of attachment. X1 = CN1/C(=C/C=C/C=C/C2=[N+](CCCCCC(=O)*)c3ccc(S(=O)(=O)[O-])cc3C2(C)C)C(C)(C)c2cc(S(=O)(=O)O)ccc21; Hyp = O=C(O)[C@@H]1C[C@@H](O)CN1; Nlys = NCCCCNCC(=O)O; Ahx = NCCCCCC(=O)O

Tests used:
[1] = Organ fluorescence 2 h post-injection (clearance route); type: in vivo, mouse; details: nude mice, organs isolated 2 h post i.v. injection of 1 nmol
Method: (§1) Typically, the fluorescence peptides or peptoids were prepared at a dose of 1 nmol (10 µM in 100 µL of 1× PBS buffer) and injected into the tail vein of each mouse 2 h prior to fluorescence imaging with an IVIS Spectrum imager (PerkinElmer Lumina III). For Figure 4, Figures S17 and S18 (Supporting Information) (joint aging and RA) and Figure S27 (Supporting Information), 2 nmol of Cy5‐(NlysO)7 (20 µM in 100 µL of 1× PBS buffer) were i.v. administered to each mouse. For 1‐week‐old neonatal mice, 1 nmol of Cy5‐(NlysO)7 (20 µM in 50 µL of 1× PBS buffer) was intravenously injected into each mouse. All in vivo imaging was performed 2 h post probe injection with the IVIS Spectrum imager (PerkinElmer, fluorescence: ex/em: 620/670 nm, exposure: 1 s, bing: 4, F/Stop: 2; field of view: A/B/C/Z). Mice were anesthesia with 3% isoflurane (RWD, R510‐22‐10) during image acquisition. Hair in the knee areas was removed before fluorescence imaging for mice in Figure 4a and Figure S17 (Supporting Information). The mice were euthanized following the final image acquisition and occasionally imaged again after skin and organ removal. Next, the airways, ankles, ears, paws, knees, tails, spines, and chest ribs were collected, imaged, and saved for subsequent histology analysis. All acquired fluorescence images were analyzed using the Living Image software (PerkinElmer). The fluorescence signal from each specimen was measured by quantifying the average radiation efficiency within the selected oval‐shaped regions‐of‐interest.

[2] = test system: vitreous bodies and skin; test: In vivo uptake in vitreous bodies and skin; details: mouse, 2 h post i.v. injection of 2 nmol
Method: as §1, with “Next, the airways, ankles, ears, paws, knees, tails, spines, and chest ribs were collected, imaged, and saved for subsequent histology analysis.” left out

[3] = Blood biochemical analysis; type: in vivo, mouse; details: C57BL/6J mice, 24 h post i.v. injection of 2 nmol, n = 5
Method: Blood biochemical analysis: Each C57BL/6J mouse (6–8 weeks old) was intravenously injected with 100 µL of PBS or Cy5‐(NlysO)7 (2 nmol in 100 µL 1× PBS buffer per mouse) 24 h prior to blood collection for the biochemical analysis. Biochemical analysis of the blood was performed by Wuhan Servicebio.

[4] = In vitro cartilage uptake (absorption); details: after 30 min; 10 mg porcine cartilage slice, 10 µM in 200 µL 1× PBS, room temperature, fluorescence, n = 6
Method: Porcine cartilage was freshly harvested from the articular cartilage of an adult pig's knee joint obtained from a local slaughterhouse. Porcine cartilage plugs (diameter: 6 mm) were excised using an osteotomy drill with constant rinsing with PBS buffer for cooling. All solutions in the experiments with unfixed porcine cartilage samples (e.g., Figure 2d–f; Figures S5 and S6, Supporting Information) contained 100 U mL^−1 penicillin and 0.1 mg mL^−1 streptomycin (Solarbio, P1400) to prevent bacterial growth.
The porcine cartilage plugs were carefully cut into small cuboids with a uniform size (≈5 × 1 × 2 mm, ≈10 mg by wet weight). […] Each incubation bath was aliquoted so its fluorescence FN1 of the incubation bath was measured without the cartilage samples using a microplate reader (PerkinElmer EnVision; excitation: 646 nm, emission: 662 nm) at specified time points (N1 = 0.5, 1, 2, 4, 6, 8, 10, 12, and 24 h) to estimate the absorption of the probes (Figure 2d; Figure S5, Supporting Information), while fluorescence levels of the compound solutions pre‐measured before incubation were recorded as Fpre. The unabsorbed percent was calculated as FN1/Fpre×100%, and the final fluorescence measurement after 24 h of absorption was recorded as F24h. […]

In the case of `CN1/C(=C/C=C/C=C/C2=[N+](CCCCCC(=O)NCCCCCC(=O)N(CCCCN)CC(=O)N3C[C@H](O)C[C@H]3C(=O)N(CCCCN)CC(=O)N3C[C@H](O)C[C@H]3C(=O)N(CCCCN)CC(=O)N3C[C@H](O)C[C@H]3C(=O)N(CCCCN)CC(=O)N3C[C@H](O)C[C@H]3C(=O)N(CCCCN)CC(=O)N3C[C@H](O)C[C@H]3C(=O)N(CCCCN)CC(=O)N3C[C@H](O)C[C@H]3C(=O)N(CCCCN)CC(=O)N3C[C@H](O)C[C@H]3C(N)=O)c3ccc(S(=O)(=O)[O-])cc3C2(C)C)C(C)(C)c2cc(S(=O)(=O)O)ccc21` [Cy5‐(NlysO)7] ({X1-Ahx}-[Nlys][Hyp][Nlys][Hyp][Nlys][Hyp][Nlys][Hyp][Nlys][Hyp][Nlys][Hyp][Nlys][Hyp]-NH2), the “clearance route from organ fluorescence” value [1] was “might be mainly cleared through kidneys”, the “in vivo fluorescence uptake in vitreous bodies and skin compared to cartilage” value [2] was “virtually no in vivo fluorescence uptake” and the “blood biochemical analytes (ALT, AST, TBIL, UREA, BUN, CREA) vs PBS group” value [3] was “no key analytes from the Cy5‐(NlysO)7 group significantly differed”.

For `CN1/C(=C/C=C/C=C/C2=[N+](CCCCCC(=O)NCCCCCC(=O)N[C@@H](CCCNC(=N)N)C(=O)N[C@@H](CCCNC(=N)N)C(=O)N[C@@H](CCCNC(=N)N)C(=O)N[C@@H](CCCNC(=N)N)C(=O)N[C@@H](CCCNC(=N)N)C(=O)N[C@@H](CCCNC(=N)N)C(=O)N[C@@H](CCCNC(=N)N)C(=O)N[C@@H](CCCNC(=N)N)C(N)=O)c3ccc(S(=O)(=O)[O-])cc3C2(C)C)C(C)(C)c2cc(S(=O)(=O)O)ccc21` [Cy5‐R8, reference compound], the “unabsorbed percent of starting concentration remaining in solution” value [4] was “≈ 20%”.
